Assay: xn = mol fraction of the nth substance listed

CC#N + O
Conditions	viscosity [mPa·s]
293.15 K, 101 kPa, x1 = 0.032	1.095
293.15 K, 101 kPa, x1 = 0.057	1.11
293.15 K, 101 kPa, x1 = 0.097	1.103
293.15 K, 101 kPa, x1 = 0.154	1.023
293.15 K, 101 kPa, x1 = 0.2	0.963
293.15 K, 101 kPa, x1 = 0.395	0.723
293.15 K, 101 kPa, x1 = 0.596	0.516
293.15 K, 101 kPa, x1 = 0.8	0.413
293.15 K, 101.33 kPa, x1 = 0.03	1.091
293.15 K, 101.33 kPa, x1 = 0.06	1.124
293.15 K, 101.33 kPa, x1 = 0.12	1.105
293.15 K, 101.33 kPa, x1 = 0.22	1.029
293.15 K, 101.33 kPa, x1 = 0.29	0.9338
293.15 K, 101.33 kPa, x1 = 0.37	0.7979
293.15 K, 101.33 kPa, x1 = 0.43	0.722
293.15 K, 101.33 kPa, x1 = 0.61	0.5948
293.15 K, 101.33 kPa, x1 = 0.7	0.5389
293.15 K, 101.33 kPa, x1 = 0.87	0.4657
298.15 K, 101 kPa, x1 = 0.046	0.867
298.15 K, 101 kPa, x1 = 0.1	0.862
298.15 K, 101 kPa, x1 = 0.2	0.858
298.15 K, 101 kPa, x2 = 0.2626	0.42
298.15 K, 101 kPa, x2 = 0.4466	0.517
298.15 K, 101 kPa, x2 = 0.4952	0.554
298.15 K, 101 kPa, x2 = 0.6032	0.651
298.15 K, 101 kPa, x2 = 0.613	0.66
298.15 K, 101 kPa, x2 = 0.6508	0.669
298.15 K, 101 kPa, x2 = 0.7029	0.754
298.15 K, 101 kPa, x2 = 0.7445	0.801
298.15 K, 101 kPa, x2 = 0.7543	0.815
298.15 K, 101.3 kPa, x1 = 0.025	0.9497
298.15 K, 101.3 kPa, x1 = 0.05	0.9779
298.15 K, 101.3 kPa, x1 = 0.075	0.9826
298.15 K, 101.3 kPa, x1 = 0.1	0.9704
298.15 K, 101.3 kPa, x1 = 0.2019	0.8706
298.15 K, 101.33 kPa, x2 = 0.1028	0.375
298.15 K, 101.33 kPa, x2 = 0.2071	0.402
298.15 K, 101.33 kPa, x2 = 0.297	0.436
298.15 K, 101.33 kPa, x2 = 0.4021	0.495
298.15 K, 101.33 kPa, x2 = 0.4985	0.563
298.15 K, 101.33 kPa, x2 = 0.6057	0.656
298.15 K, 101.33 kPa, x2 = 0.6987	0.75
298.15 K, 101.33 kPa, x2 = 0.7843	0.842
298.15 K, 101.33 kPa, x2 = 0.8773	0.94
303.15 K, 101 kPa, x1 = 0.032	0.861
303.15 K, 101 kPa, x1 = 0.0498	0.8684
303.15 K, 101 kPa, x1 = 0.057	0.872
303.15 K, 101 kPa, x1 = 0.065	0.8736
303.15 K, 101 kPa, x1 = 0.084	0.8728
303.15 K, 101 kPa, x1 = 0.097	0.868
303.15 K, 101 kPa, x1 = 0.1498	0.8314
303.15 K, 101 kPa, x1 = 0.154	0.815
303.15 K, 101 kPa, x1 = 0.2	0.774
303.15 K, 101 kPa, x1 = 0.2534	0.7376
303.15 K, 101 kPa, x1 = 0.3831	0.6065
303.15 K, 101 kPa, x1 = 0.395	0.607
303.15 K, 101 kPa, x1 = 0.5071	0.5088
303.15 K, 101 kPa, x1 = 0.596	0.449
303.15 K, 101 kPa, x1 = 0.6075	0.4532
303.15 K, 101 kPa, x1 = 0.7039	0.4039
303.15 K, 101 kPa, x1 = 0.8	0.372
303.15 K, 101 kPa, x1 = 0.8042	0.3676
303.15 K, 101 kPa, x1 = 0.894	0.3442
308.15 K, 101 kPa, x1 = 0.046	0.707
308.15 K, 101 kPa, x1 = 0.0498	0.7729
308.15 K, 101 kPa, x1 = 0.065	0.7826
308.15 K, 101 kPa, x1 = 0.084	0.7812
308.15 K, 101 kPa, x1 = 0.1	0.705
308.15 K, 101 kPa, x1 = 0.1498	0.7485
308.15 K, 101 kPa, x1 = 0.2	0.697
308.15 K, 101 kPa, x1 = 0.2534	0.67
308.15 K, 101 kPa, x1 = 0.3831	0.5596
308.15 K, 101 kPa, x1 = 0.5071	0.4711
308.15 K, 101 kPa, x1 = 0.6075	0.4236
308.15 K, 101 kPa, x1 = 0.7039	0.3804
308.15 K, 101 kPa, x1 = 0.8042	0.3486
308.15 K, 101 kPa, x1 = 0.894	0.3278
313.15 K, 101 kPa, x1 = 0.032	0.698
313.15 K, 101 kPa, x1 = 0.0498	0.6998
313.15 K, 101 kPa, x1 = 0.057	0.707
313.15 K, 101 kPa, x1 = 0.065	0.7058
313.15 K, 101 kPa, x1 = 0.084	0.7062
313.15 K, 101 kPa, x1 = 0.097	0.707
313.15 K, 101 kPa, x1 = 0.1498	0.6782
313.15 K, 101 kPa, x1 = 0.154	0.668
313.15 K, 101 kPa, x1 = 0.2	0.641
313.15 K, 101 kPa, x1 = 0.2534	0.612
313.15 K, 101 kPa, x1 = 0.3831	0.5157
313.15 K, 101 kPa, x1 = 0.395	0.516
313.15 K, 101 kPa, x1 = 0.5071	0.441
313.15 K, 101 kPa, x1 = 0.596	0.399
313.15 K, 101 kPa, x1 = 0.6075	0.3978
313.15 K, 101 kPa, x1 = 0.7039	0.3598
313.15 K, 101 kPa, x1 = 0.8	0.34
313.15 K, 101 kPa, x1 = 0.8042	0.3318
313.15 K, 101 kPa, x1 = 0.894	0.3132
318.15 K, 101 kPa, x1 = 0.046	0.584
318.15 K, 101 kPa, x1 = 0.0498	0.635
318.15 K, 101 kPa, x1 = 0.065	0.6402
318.15 K, 101 kPa, x1 = 0.084	0.6409
318.15 K, 101 kPa, x1 = 0.1	0.58
318.15 K, 101 kPa, x1 = 0.1498	0.6185
318.15 K, 101 kPa, x1 = 0.2	0.578
318.15 K, 101 kPa, x1 = 0.2534	0.5635
318.15 K, 101 kPa, x1 = 0.3831	0.4801
318.15 K, 101 kPa, x1 = 0.5071	0.4101
318.15 K, 101 kPa, x1 = 0.6075	0.3754
318.15 K, 101 kPa, x1 = 0.7039	0.3408
318.15 K, 101 kPa, x1 = 0.894	0.2996
323.15 K, 101 kPa, x1 = 0.032	0.579
323.15 K, 101 kPa, x1 = 0.0498	0.5802
323.15 K, 101 kPa, x1 = 0.057	0.587
323.15 K, 101 kPa, x1 = 0.097	0.589
323.15 K, 101 kPa, x1 = 0.154	0.561
323.15 K, 101 kPa, x1 = 0.2	0.54
323.15 K, 101 kPa, x1 = 0.395	0.447
323.15 K, 101 kPa, x1 = 0.596	0.356
323.15 K, 101 kPa, x1 = 0.8	0.312
